# Test results published in patent publication US7671085B2, “Non-steroidal farnesoid X receptor modulators and methods for the use thereof” (The Salk Institute for Biological Studies, priority 2002, dated 2010).
# What was measured:
# [1] = target: T1, FXR (Homo sapiens, UniProt Q96RI1); test: cell-based FXR transcription assay, FXR responsive promoter linked to luciferase reporter; conditions: cell-based FXR reporter assay; footnote a not given
# T1 construct: using a full length FXR on a natural response element; expressed in transfected cells
# T1 sequence (Q96RI1 1-486): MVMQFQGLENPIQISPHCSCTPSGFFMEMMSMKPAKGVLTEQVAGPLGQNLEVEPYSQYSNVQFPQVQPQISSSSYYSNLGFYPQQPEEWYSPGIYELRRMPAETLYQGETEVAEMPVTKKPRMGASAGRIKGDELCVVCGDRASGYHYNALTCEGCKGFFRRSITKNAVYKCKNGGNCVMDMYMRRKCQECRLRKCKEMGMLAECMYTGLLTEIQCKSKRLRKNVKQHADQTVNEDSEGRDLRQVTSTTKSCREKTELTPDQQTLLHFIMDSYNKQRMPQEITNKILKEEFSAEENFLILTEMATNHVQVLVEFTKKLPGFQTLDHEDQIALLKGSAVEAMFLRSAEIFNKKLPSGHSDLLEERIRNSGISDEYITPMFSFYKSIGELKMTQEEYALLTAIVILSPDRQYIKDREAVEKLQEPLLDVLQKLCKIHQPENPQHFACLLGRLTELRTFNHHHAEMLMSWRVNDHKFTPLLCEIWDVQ
# Outline: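 Cells co-transfected with full-length FXR and a luciferase reporter driven by a natural response element on a minimal promoter. Compound exposure ≈10 μM for 18 h before washing and luciferase read-out, in 384-well format, with CDCA as reference activator. EC50 derived from transcriptional activity.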
# [2] = target: T2, SXR (Homo sapiens, UniProt O75469); test: nuclear receptor panel: SXR activation; type: cell-based
# T2 sequence (O75469 1-434): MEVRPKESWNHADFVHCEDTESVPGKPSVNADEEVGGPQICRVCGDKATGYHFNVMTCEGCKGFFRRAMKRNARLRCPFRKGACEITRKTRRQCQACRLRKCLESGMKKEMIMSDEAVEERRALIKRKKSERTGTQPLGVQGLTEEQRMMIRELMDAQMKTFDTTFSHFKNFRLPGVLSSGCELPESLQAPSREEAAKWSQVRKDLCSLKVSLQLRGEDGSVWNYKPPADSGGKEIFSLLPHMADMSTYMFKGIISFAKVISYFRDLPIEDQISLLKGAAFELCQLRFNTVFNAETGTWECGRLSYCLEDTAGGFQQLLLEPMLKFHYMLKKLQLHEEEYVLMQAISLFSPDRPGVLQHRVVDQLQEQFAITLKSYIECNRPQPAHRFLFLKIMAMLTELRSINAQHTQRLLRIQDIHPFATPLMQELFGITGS
# [3] = system: FXR (IBABP, PLTP and MRP-2 promoters); test: transient transfection cell-based assay with natural promoters of FXR targets (IBABP, PLTP, MRP-2)
# Description: For this study, the following gene promoters were used: intestinal bile acid binding protein (IBABP; see, for example, Grober et al. (1999). Identification of a bile acid-responsive element in the human ileal bile acid-binding protein gene. Involvement of the farnesoid X receptor/9-cis-retinoic acid receptor heterodimer. J Biol Chem. 274(42), 29749-54), phospholipid transfer protein (PLTP) (Urizar et al (2000). The farnesoid X-activated receptor mediates bile acid activation of phospholipid transfer protein gene expression. J Biol Chem. 275(50), 39313-7) and multidrug resistance related protein 2 (MRP-2) (Kast et al. (2002), supra), which are all well characterized targets of FXR. The natural promoters of both the IBABP and PLTP genes contain one copy of an inverted repeat with a one base spacing (IR-1) while MRP-2 contains an ER-8 element. […] The most robust activation (28-fold) was seen on the IBABP promoter. Less robust (2-3 fold) but specific activation was observed on the PLTP and MRP-2 promoters.
# [4] = system: IBABP mRNA in HT29-FXRFL cells; test: Northern blot of IBABP mRNA in HT29 stable cell lines; type: cell-based, Human
# Procedure: (§1) HepG2 or HT29-derived cell lines were typically cultured in medium containing superstripped FBS for 24 hr before the addition of a ligand or DMSO (vehicle) for an additional 24-48 hr. Total RNA was isolated using TRIzol reagent and was resolved (10 μg/lane) on a 1% agarose, 2.2 M formaldehyde gel, transferred to a nylon membrane (Hybond N^+; Amersham Biosciences, Inc.), and cross-linked to the membrane with UV light.
# (§2) cDNA probes were radiolabeled with [α-^32P]dCTP using the highprime labeling kit (Amersham Biosciences, Inc.). Membranes were hybridized using the QuikHyb hybridization solution (Stratagene, La Jolla, Calif.) according to the manufacturer's protocol. Blots were normalized for variations of RNA loading by hybridization to a control probe, either, 18 S ribosomal cDNA, or the ribosomal protein 36B4. The RNA levels were quantitated using a PhosphorImager (ImageQuant software; Molecular Dynamics, Inc., Sunnyvale, Calif.) in addition to being exposed to X-ray film.
# Human colon cells HT29 (FXR null until differentiated) were infected with retroviral vectors that expressed either FXR constructs and the puromycin-resistant gene or the puromycin-resistant gene alone. Puromycin resistant cells were isolated and pooled cell populations were propagated that harbored either the vector alone (HT29-BABE), overexpressed FXR full length (HT29-FXRFL), a non-functional FXR truncated at the AF2 region (HT29-FXR-AF2), or a constitutively active FXR that has the VP16 activation domain fused N-terminal of the protein (HT29-VP16-FXR). Confirmation of the successful establishment of the different stable cell lines was established via northern blot analysis of FXR message levels in the cells.
# These observations verify the usefulness of this colon cell model system for studying the induction of FXR target genes.
# The ability of the novel compounds identified herein to induce IBABP gene expression in this cell system was also examined. Total RNA from HT29 stable cells treated overnight with fexaramine, fexarine and fexarene was probed for IBABP gene expression.
# [5] = target: T3, mouse FXR and human RXR (Mus musculus, UniProt Q60641); test: CV-1 transient transfection reporter gene assay, TK minimal promoter with ECRE or ER-8 FXRE; type: cell-based; conditions: CV-1 cells
# T3 construct: expressed in transfected cells; host or cells: CV-1 cells
# T3 sequence (Q60641 1-488): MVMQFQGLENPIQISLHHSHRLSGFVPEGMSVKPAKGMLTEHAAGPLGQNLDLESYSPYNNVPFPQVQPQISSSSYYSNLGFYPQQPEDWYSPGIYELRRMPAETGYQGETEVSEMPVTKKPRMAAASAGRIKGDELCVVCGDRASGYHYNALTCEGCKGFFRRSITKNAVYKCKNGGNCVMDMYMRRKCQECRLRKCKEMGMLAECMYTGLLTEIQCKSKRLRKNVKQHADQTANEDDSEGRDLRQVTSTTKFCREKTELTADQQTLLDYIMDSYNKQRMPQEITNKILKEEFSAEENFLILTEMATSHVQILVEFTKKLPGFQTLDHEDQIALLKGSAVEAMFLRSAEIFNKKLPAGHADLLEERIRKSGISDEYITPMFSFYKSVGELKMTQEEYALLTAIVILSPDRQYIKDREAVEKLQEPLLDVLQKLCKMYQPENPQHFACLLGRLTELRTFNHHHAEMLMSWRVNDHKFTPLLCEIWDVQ
# T3 sequence (P19793 1-462 partner): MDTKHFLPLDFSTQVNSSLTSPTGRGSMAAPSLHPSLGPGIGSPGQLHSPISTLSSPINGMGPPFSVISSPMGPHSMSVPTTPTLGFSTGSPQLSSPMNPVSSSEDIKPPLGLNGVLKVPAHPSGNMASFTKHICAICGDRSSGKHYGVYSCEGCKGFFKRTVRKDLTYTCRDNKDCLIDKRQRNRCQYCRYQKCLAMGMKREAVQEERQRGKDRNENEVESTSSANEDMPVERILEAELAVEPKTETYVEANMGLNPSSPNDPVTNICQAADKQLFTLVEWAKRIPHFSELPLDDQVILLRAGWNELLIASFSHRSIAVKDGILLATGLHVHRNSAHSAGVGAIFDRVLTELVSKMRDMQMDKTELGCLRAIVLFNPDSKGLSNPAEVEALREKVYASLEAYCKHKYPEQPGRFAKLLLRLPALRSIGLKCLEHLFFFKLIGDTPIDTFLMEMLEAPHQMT
# Procedure: The ability of these compounds to activate the receptor in a number of different cell-based reporter gene assays was then determined. […] CV-1 cells were transiently transfected with an expression plasmid for mouse FXR and human RXR with a thymidine kinase (TK) minimal promoter reporter vector containing either no copies or six copies of the ecdysone response element (ECRE), a well-characterized FXR response element (FXRE). In addition, two copies of the recently identified FXRE everted repeat separated by 8 nucleotides (ER-8) was also studied (see, for example, Laffitte et al. (2000). Identification of the DNA binding specificity and potential target genes for the farnesoid X-activated receptor. J Biol Chem. 275(14), 10638-47; Kast et al. (2002). Regulation of multidrug resistance-associated protein 2 (ABCC2) by the nuclear receptors pregnane X receptor, farnesoid X-activated receptor, and constitutive androstane receptor. J Biol Chem. 277(4), 2908-15).
# [6] = system: FXR target genes SHP, MRP-2, BSEP and PLTP; test: Northern blot of FXR target genes in HEPG2-FXR cells; type: cell-based; conditions: SHP, MRP-2, BSEP, PLTP
# Procedure: as §1, §2
# Total RNA was isolated and the expression of the FXR target genes SHP, MRP-2, BSEP and PLTP was measured by Northern blot analysis. […]
RE^a [1],"SXR activation, in words [2]",concentration at which maximal activity is achieved ([5]; ECRE and ER-8 reporters) [µM],activity on the minimal TK promoter ([5]; no FXRE copies),"activation of ECRE FXRE reporter ([5]; six copies of ECRE, TK minimal promoter) [fold]","activation of ER-8 FXRE reporter ([5]; two copies of ER-8, TK minimal promoter) [fold]",SMILES,concentration of maximum efficacy [3] [µM],"induction of IBABP mRNA, in words ([4]; HT29-BABE or HT29-FXR-AF2 cell lines)","induction of IBABP mRNA, in words ([4]; HT29-FXRFL cells)","concentration for maximal induction of IBABP mRNA ([4]; HT29-FXRFL cells, overnight treatment) [µM]","induction of IBABP mRNA, in words ([4]; HT29-VP16-FXR cells (constitutive expression))","induction of FXR target genes, in words [6]"
0.50,potently activated SXR,–,–,–,–,COC(=O)/C=C/c1cccc(N(Cc2ccc3c(c2OC)OC(C)(C)C2C3C2(Cl)Cl)C(=O)C2CCCCC2)c1 (stereo not drawn) [Compound 149],–,–,–,–,–,–
–,–,1,less than 2 fold,100,4,"CC(C)c1onc(-c2c(Cl)cccc2Cl)c1COc1ccc(/C=C/c2cccc(C(=O)O)c2)c(Cl)c1 [GW4064, reference compound]",1,No induction of IBABP mRNA levels,robust concentration dependent induction of IBABP mRNA,1,super-induced,slightly better induction of the FXR target genes PLTP and SHP
